Reference: article PMC6384738, “Structure-Function Studies of Polymyxin B Lipononapeptides” (Molecules, 2019)
≈ marks a conversion by molar mass, not a printed value. *1 amine or outer side, *2 acyl side, *3 side chain or, on linkers, in order; H or OH if unused. Where a SMILES comes first, the peptide text is derived from it. Bridges are numbered along the chain shown (N, C = ends). [ ]: non-standard residue; d: D form. The star is where a group is joined. Biphenylcarbonyl(4'-Bu) = CCCCc1ccc(-c2ccc(C(=O)*)cc2)cc1; Isonicotinoyl(2-Ph) = O=C(c1ccnc(-c2ccccc2)c1)*; Benzoyl(3-Ph) = O=C(c1cccc(-c2ccccc2)c1)*; Benzoyl(4-hexyl) = CCCCCCc1ccc(C(=O)*)cc1; Hexanoyl(6-Ph) = O=C(CCCCCc1ccccc1)*; X2 = CCCCCOc1cccc(C(=O)*)c1; X1 = CCCCCC1CCC(C(=O)*)CC1; NH(2-ClPh) = Clc1ccccc1N*; dDab = NCC[C@@H](N)C(=O)O; Octanoyl = CCCCCCCC(=O)*; Dab = NCC[C@H](N)C(=O)O; CO = O=C([*:1])[*:2]

How the values were obtained:
in vitro = settings: human
Procedure: (§1) All compounds synthesised in this study were assessed for their minimum inhibitory concentrations (MIC, mg/L) by broth microdilution assay against five antibiotic-sensitive and resistant ATCC reference strains covering the Gram-negative ESKAPE pathogens (Escherichia coli, Klebsiella pneumoniae, A. baumannii, and P. aeruginosa) (Table 1, Table 2 and Table 3). Staphylococcus aureus was also included as a representative Gram-positive bacterial strain. […] Polymyxin B 1, colistin 2, vancomycin and gentamicin were used as positive inhibitor comparator compounds. Compounds were counter-screened against human proximal tubular epithelial cells (HK-2), using LDH release as a general indicator of cellular toxicity.
Cytotoxicity to human kidney proximal tubular epithelial cell line, HK-2 (ATCC CRL-2190, sourced from ATCC; Manassas, VA, USA) was determined using the LDH assay as previously described. In brief, HK-2 cells were seeded as 2000 cells/well in black-walled clear bottom 384-well tissue culture treated plates (Corning, catalogue No. 3712) in DMEM/F12 medium (Gibco® 10565-042) containing 10% of Fetal Bovine Serum (FBS, Gibco® 10099-141) and incubated for 24 h at 37 °C, 5% CO2. Compounds were then added into each well with a concentration series from 300 µM to 2.3 µM in 2-fold dilutions. Colistin and polymyxin B were used as controls and tested at a final concentration range of 1 mM to 7.8 µM. The cells were incubated with the compounds for 24 h at 37 °C, 5% CO2. After the incubation, 5 µL of culture medium was added to 45 µL of LDH assay buffer (Biovision, K313-500) and incubated for 30 min at room temperature. The absorbance (ABS) was then read at 450 nm using a Polar Star Omega plate reader. The data was analysed by Prism 6 software (GraphPad Software, La Jolla, CA, USA). Results were calculated using the following equation: cytotoxicity %= (ABSsamples − ABSuntreated/ABS1%Triton X-100 − ABSuntreated) × 100.

S. aureus ATCC 25923 = experiment: microbe, parasite or virus in culture; settings: ATCC 25923, 18 h
Procedure: as §1

A. baumannii ATCC 19606 = experiment: microbe, parasite or virus in culture; settings: ATCC 19606, 18 h
Procedure: as §1

K. pneumoniae ATCC 13833 = experiment: microbe, parasite or virus in culture; settings: ATCC 13833, 18 h
Procedure: as §1

E. coli ATCC 25922 = experiment: microbe, parasite or virus in culture; settings: ATCC 25922, 18 h
Procedure: as §1

[1] = tested on: K. pneumoniae ATCC 700603; experiment: microbe, parasite or virus in culture; settings: ATCC 700603, 18 h
Procedure: as §1

P. aeruginosa ATTC 27853 = experiment: microbe, parasite or virus in culture; settings: ATTC 27853, 18 h
Procedure: as §1

K. pneumoniae BAA 2146 = experiment: microbe, parasite or virus in culture; settings: BAA 2146, 18 h
Procedure: as §1

Row | SMILES | CC50 at 24 h (in vitro) | MIC S. aureus ATCC 25923 (S. aureus ATCC 25923) | MIC A. baumannii ATCC 19606 (A. baumannii ATCC 19606) | MIC K. pneumoniae ATCC 13833 (K. pneumoniae ATCC 13833) | MIC E. coli ATCC 25922 (E. coli ATCC 25922) | MIC K. pneumoniae ATCC 700603 [1] | MIC P. aeruginosa ATTC 27853 (P. aeruginosa ATTC 27853) | MIC K. pneumoniae BAA 2146 (K. pneumoniae BAA 2146)
1 | CCCCCCCC(=O)N[C@@H](CCN)C(=O)N[C@H](C(=O)N[C@H]1CCNC(=O)[C@H]([C@@H](C)O)NC(=O)[C@H](CCN)NC(=O)[C@H](CCN)NC(=O)[C@H](CC(C)C)NC(=O)[C@@H](Cc2ccccc2)NC(=O)[C@H](CCN)NC1=O)[C@@H](C)O [Compound 9] (Octanoyl-[Dab]T[Dab][Dab][dF]L[Dab][Dab]T; lactam 3-C) | 79 µM | >32 mg/L | >32 mg/L | >32 mg/L | >32 mg/L | >32 mg/L | 32 mg/L (≈ 29.4 µM) | >32 mg/L
2 | CC(C)C[C@@H]1NC(=O)[C@@H](Cc2ccccc2)NC(=O)[C@H](CCN)NC(=O)[C@@H](NC(=O)[C@H](CCN)NC(=O)[C@@H](NC(=O)c2ccnc(-c3ccccc3)c2)[C@@H](C)O)CCNC(=O)[C@H]([C@@H](C)O)NC(=O)[C@H](CCN)NC(=O)[C@H](CCN)NC1=O [Compound 10] ({Isonicotinoyl(2-Ph)}-T[Dab][Dab][Dab][dF]L[Dab][Dab]T; lactam 3-C) | > 300 µM | >32 mg/L | >32 mg/L | >32 mg/L | 4 mg/L (≈ 3.5 µM) | 16 mg/L (≈ 14 µM) | 1 mg/L (≈ 0.874 µM) | 16 mg/L (≈ 14 µM)
3 | CCCCCOc1cccc(C(=O)N[C@H](C(=O)N[C@@H](CCN)C(=O)N[C@H]2CCNC(=O)[C@H]([C@@H](C)O)NC(=O)[C@H](CCN)NC(=O)[C@H](CCN)NC(=O)[C@H](CC(C)C)NC(=O)[C@@H](Cc3ccccc3)NC(=O)[C@H](CCN)NC2=O)[C@@H](C)O)c1 [Compound 11] (X2-T[Dab][Dab][Dab][dF]L[Dab][Dab]T; lactam 3-C) | 93 µM | >32 mg/L | >32 mg/L | >32 mg/L | 8 mg/L (≈ 6.94 µM) | 32 mg/L (≈ 27.7 µM) | 2 mg/L (≈ 1.73 µM) | 8 mg/L (≈ 6.94 µM)
4 | CCCCCCc1ccc(C(=O)N[C@H](C(=O)N[C@@H](CCN)C(=O)N[C@H]2CCNC(=O)[C@H]([C@@H](C)O)NC(=O)[C@H](CCN)NC(=O)[C@H](CCN)NC(=O)[C@H](CC(C)C)NC(=O)[C@@H](Cc3ccccc3)NC(=O)[C@H](CCN)NC2=O)[C@@H](C)O)cc1 [Compound 12] ({Benzoyl(4-hexyl)}-T[Dab][Dab][Dab][dF]L[Dab][Dab]T; lactam 3-C) | 46 µM | 8 mg/L (≈ 6.95 µM) | 32 mg/L (≈ 27.8 µM) | 16 mg/L (≈ 13.9 µM) | 2 mg/L (≈ 1.74 µM) | 4 mg/L (≈ 3.47 µM) | 1 mg/L (≈ 0.868 µM) | 2 mg/L (≈ 1.74 µM)
5 | CC(C)C[C@@H]1NC(=O)[C@@H](Cc2ccccc2)NC(=O)[C@H](CCN)NC(=O)[C@@H](NC(=O)[C@H](CCN)NC(=O)[C@@H](NC(=O)CCCCCc2ccccc2)[C@@H](C)O)CCNC(=O)[C@H]([C@@H](C)O)NC(=O)[C@H](CCN)NC(=O)[C@H](CCN)NC1=O [Compound 13] ({Hexanoyl(6-Ph)}-T[Dab][Dab][Dab][dF]L[Dab][Dab]T; lactam 3-C) | 189 µM | >32 mg/L | 8 mg/L (≈ 7.03 µM) | 8 mg/L (≈ 7.03 µM) | 1 mg/L (≈ 0.879 µM) | 2 mg/L (≈ 1.76 µM) | 1 mg/L (≈ 0.879 µM) | 1 mg/L (≈ 0.879 µM)
6 | CC(C)C[C@@H]1NC(=O)[C@@H](Cc2ccccc2)NC(=O)[C@H](CCN)NC(=O)[C@@H](NC(=O)[C@H](CCN)NC(=O)[C@@H](NC(=O)c2cccc(-c3ccccc3)c2)[C@@H](C)O)CCNC(=O)[C@H]([C@@H](C)O)NC(=O)[C@H](CCN)NC(=O)[C@H](CCN)NC1=O [Compound 14] ({Benzoyl(3-Ph)}-T[Dab][Dab][Dab][dF]L[Dab][Dab]T; lactam 3-C) | 182 µM | >32 mg/L | >32 mg/L | >32 mg/L | 8 mg/L (≈ 7 µM) | 32 mg/L (≈ 28 µM) | 2 mg/L (≈ 1.75 µM) | 16 mg/L (≈ 14 µM)
7 | CC(C)C[C@@H]1NC(=O)[C@@H](Cc2ccccc2)NC(=O)[C@H](CCN)NC(=O)[C@@H](NC(=O)[C@H](CCN)NC(=O)[C@@H](NC(=O)[C@H](CCN)NC(=O)Nc2ccccc2Cl)[C@@H](C)O)CCNC(=O)[C@H]([C@@H](C)O)NC(=O)[C@H](CCN)NC(=O)[C@H](CCN)NC1=O [Compound 16] ({NH(2-ClPh)-CO}-[Dab]T[Dab][Dab][Dab][dF]L[Dab][Dab]T; lactam 4-C) | > 300 µM |  |  |  |  |  |  | 
8 | CCCCc1ccc(-c2ccc(C(=O)N[C@H](C(=O)N[C@H](CCN)C(=O)N[C@H]3CCNC(=O)[C@H]([C@@H](C)O)NC(=O)[C@H](CCN)NC(=O)[C@H](CCN)NC(=O)[C@H](CC(C)C)NC(=O)[C@@H](Cc4ccccc4)NC(=O)[C@H](CCN)NC3=O)[C@@H](C)O)cc2)cc1 [Compound 23] ({Biphenylcarbonyl(4'-Bu)}-T[dDab][Dab][Dab][dF]L[Dab][Dab]T; lactam 3-C) | 29 µM |  |  |  |  |  |  | 
9 | CCCCCC1CCC(C(=O)N[C@H](C(=O)N[C@H](CCN)C(=O)N[C@H]2CCNC(=O)[C@H]([C@@H](C)O)NC(=O)[C@H](CCN)NC(=O)[C@H](CCN)NC(=O)[C@H](CC(C)C)NC(=O)[C@@H](Cc3ccccc3)NC(=O)[C@H](CCN)NC2=O)[C@@H](C)O)CC1 (some centres unmarked) [Compound 24] (X1-T[dDab][Dab][Dab][dF]L[Dab][Dab]T; lactam 3-C) | 60 µM |  | 32 mg/L (≈ 28 µM) | >32 mg/L | 4 mg/L (≈ 3.5 µM) | 8 mg/L (≈ 7 µM) | 4 mg/L (≈ 3.5 µM) | 4 mg/L (≈ 3.5 µM)
10 | CCCCCCCC(=O)N[C@@H](CCN)C(=O)N[C@H](C(=O)N[C@H](CO)C(=O)N[C@H]1CCNC(=O)[C@H]([C@@H](C)O)NC(=O)[C@H](CCN)NC(=O)[C@H](CCN)NC(=O)[C@H](CC(C)C)NC(=O)[C@@H](Cc2ccccc2)NC(=O)[C@H](CCN)NC1=O)[C@@H](C)O [Compound 34] (Octanoyl-[Dab]T[dS][Dab][Dab][dF]L[Dab][Dab]T; lactam 4-C) | 139 µM | >32 mg/L |  | 0.5 mg/L (≈ 0.425 µM) |  | 2 mg/L (≈ 1.7 µM) |  | 16 mg/L (≈ 13.6 µM)
11 | CCCCCCCC(=O)N[C@@H](CCN)C(=O)N[C@H](C(=O)NCC(=O)N[C@H]1CCNC(=O)[C@H]([C@@H](C)O)NC(=O)[C@H](CCN)NC(=O)[C@H](CCN)NC(=O)[C@H](CC(C)C)NC(=O)[C@@H](Cc2ccccc2)NC(=O)[C@H](CCN)NC1=O)[C@@H](C)O [Compound 50] (Octanoyl-[Dab]TG[Dab][Dab][dF]L[Dab][Dab]T; lactam 4-C) | > 300 µM | >32 mg/L |  | 0.5 mg/L (≈ 0.436 µM) |  |  |  | 
